Source: patent US11439660B2, “Antimicrobial poly(alkylated imidazolium) salts” (NANYANG TECHNOLOGICAL UNIVERSITY, priority 2017, dated 2022)

Assays:
[1] = system: PAER (carbapenem-resistant Pseudomonas aeruginosa, CRPA); details: imipenem control, 2 mg/kg, 3 doses
Protocol: In another study, mice (5 per group) were treated with varied doses of PIM 1 at 1 h, 4 h and 8 h post-infection with PAO1. Positive and negative control groups of mice were injected with 2 mg/kg of imipenem and same volume of PBS respectively, at the same time point. At the 12th hour, all mice were euthanized with peritoneal washes performed via injecting 3.0 mL of PBS into the intraperitoneal cavity followed by massaging the abdomen for 1 min. After which, approximately 1 mL of peritoneal fluid was recovered to calculating the CFU of bacteria, as well as for immune cells quantification.
For carbapenem-resistant Acinetobacter baumannii (CRAB) and carbapenem-resistant Pseudomonas aeruginosa (CRPA) septicemia protection model, similar procedure was conducted with care and 5% mucin was injected together with the bacteria to have the mice immunocompromised (resulting in similar conditions as hospitalised patients).

[2] = system: AB-1 (carbapenem-resistant Acinetobacter baumannii, CRAB); details: imipenem control, 2 mg/kg × 3 doses
Protocol: In another study, mice (5 per group) were treated with varied doses of PIM 1 at 1 h, 4 h and 8 h post-infection with PAO1. Positive and negative control groups of mice were injected with 2 mg/kg of imipenem and same volume of PBS respectively, at the same time point. At the 12th hour, all mice were euthanized with peritoneal washes performed via injecting 3.0 mL of PBS into the intraperitoneal cavity followed by massaging the abdomen for 1 min. After which, approximately 1 mL of peritoneal fluid was recovered to calculating the CFU of bacteria, as well as for immune cells quantification. Bacterial loads were also evaluated in the spleen, liver and kidneys of the animals.
For carbapenem-resistant Acinetobacter baumannii (CRAB) and carbapenem-resistant Pseudomonas aeruginosa (CRPA) septicemia protection model, similar procedure was conducted with care and 5% mucin was injected together with the bacteria to have the mice immunocompromised (resulting in similar conditions as hospitalised patients). The amount of bacteria was analysed with one-way classification analysis of variance (ANOVA) and student's t-test (Graphpad Prism for Windows, version 7).

[3] = system: PAO1; assay: Mouse septicemia model, survival; type: in vivo; details: 1 mg/kg IP at 0.5 h, 4 h and 8 h post-infection; monitored over 7 days
Protocol: Given the excellent bacteria killing properties and biocompatibility of PIM 1 chloride, the therapeutic efficacy of this polymer was tested in vivo using a mouse septicemia model (FIG. 13). Balb/c female mice (7 weeks with one week quarantine) were used to test the PAO1 septic shock protection efficacy of PIM 1. Exponential phase of PAO1 was collected and washed twice with PBS, and re-suspended in the same volume of PBS. 300 μL of cell suspension containing 3×10^7 CFU of PAO1 was introduced into each mouse via intraperitoneal injection to induce septic shock. […] The survival rate of the mice was monitored over 7 days.

[4] = system: SA29213; type: cell-based, S. aureus; details: serial passaging at sub-MIC levels, 21 days
Protocol: Aliquots of the bacteria at various time points were stored in glycerol and kept at −80° C. for further study whenever resistance development was observed. Ofloxacin was used as the positive control.

For `C[C@@H](O)[C@H]1C(=O)N2C(C(=O)O)=C(SCCN=CN)C[C@H]12` [imipenem], the “reduction in the population of CRPA in the intraperitoneal fluid (in words)” value [1] was “no reduction” and the “removal of AB-1 from the peritoneal fluid (in words)” value [2] was “did not show any removal”.

colistin was tested, and the survival rate [3] was 80%.

For `CC1COc2c(N3CCN(C)CC3)c(F)cc3c(=O)c(C(=O)O)cn1c23` (stereo not shown) [ofloxacin], the resistance evolution [4] was “above 128 MIC fold change”.
